PMC10861299, “A Systematic Survey of Reversibly Covalent Dipeptidyl Inhibitors of the SARS-CoV-2 Main Protease” (Journal of Medicinal Chemistry, 2023)
Read-outs that look alike come from different tables or passages of the source.

Key:
[1] = target: M^Pro-eGFP fusion protein in 293T cells (Severe acute respiratory syndrome coronavirus 2, UniProt P0DTD1); assay: cell-based; parameters: species or system SARS-CoV-2
[2] = test system: SARS-CoV-2 (USA-WA1/2020); assay: Plaque reduction neutralization test in Vero E6 cells; type: cell-based; conditions: SARS-CoV-2 USA-WA1/2020, Vero E6 cells, 3 days, read-out: Antiviral EC50
[3] = target: SARS-CoV-2 main protease (M^Pro) (Severe acute respiratory syndrome coronavirus 2, UniProt P0DTD1); assay: In vitro M^Pro enzymatic inhibition with fluorogenic substrate Sub3; type: biochemical; conditions: 20 nM M^Pro, 10 μM Sub3, 30 min preincubation; read-out: Enzymatic IC50
[4] = In vitro metabolic stability in human liver microsomes; conditions: pH 7.4
Cytotoxicity, MTT assay = type: cell-based; conditions: human, HEK293T cells, 293T cells
Experimental: Because of their high antiviral potency, MPI60 and MPI61 were advanced to characterizations of cytotoxicity and in vitro metabolic stability. For the cytotoxicity characterization, we used 293T cells and the MTT assay.[42] […] These CC50 values are similar to that of nirmatrelvir and lead to high calculated selectivity indices (CC50/antiviral EC50) for both compounds. The in vitro metabolic stability analysis for MPI60 and MPI61 was conducted using human liver microsomes.
HEK293T cells were seeded in 96-well plates and incubated at 37 °C and 5% CO2 for 24 h. The cells were then treated with different concentrations (200, 100, 50, 25, 12.5, 6.25, 3.125, 1.5625, 0.78125, and 0 μM) of the tested compound in triplicate for 48 h. Cell viability was assessed by the MTT assay to determine CC50. For the MTT assay, 20 μL MTT (5 mg/mL) was added to each well and incubated with cells for 4 h. After that, the supernatant was removed, and 200 μL DMSO was added per well. The absorbance was recorded at 490 nm. The CC50 value was determined by plotting the normalized cell viability (%) against the compound concentration.
Figure S5. Cytotoxicity curves of MPI60 and MPI61 in 293T cells tested by the MTT assay.
(1 picture or pasted object on this page, not shown here)

COVID-19 patients = test system: COVID-19 patients; parameters: method as in PMID 34914868; conditions: patients with mild and moderate COVID-19; cited from earlier work
[5] = Severe acute respiratory syndrome coronavirus 2, Vero C1008, 72 h

| Compound | EC50 ([1]; read-out: Cellular EC50) | EC50 [2] | EC50 [2, 5] | IC50 [3] | CLint scaled at 5 μM [4] | half-life at 5 μM [4] | EC50 ([1]; read-out: cellular EC50) | CC50 at 48 h (Cytotoxicity, MTT assay) | reduced the risk of hospitalization and death compared to placebo (COVID-19 patients) |
| --- | --- | --- | --- | --- | --- | --- | --- | --- | --- |
| O=C[C@H](C[C@@H]1CCNC1=O)NC(=O)[C@@H]1CC2(CCC2)CN1C(=O)OCc1ccccc1 [MPI59, Benzyl (S)-7-(((S)-1-Oxo-3-((S)-2-oxopyrrolidin-3-yl)propan-2-yl)carbamoyl)-6-azaspiro[3.4]octane-6-carboxylate] | 430 nM | 560 nM | < 1000 nM | 30 nM | – | – | – | – | – |
| O=C[C@H](C[C@@H]1CCNC1=O)NC(=O)C1CC2(CCCC2)CN1C(=O)OCc1ccccc1 (stereo partly drawn) [MPI60, Benzyl 3-(((S)-1-Oxo-3-((S)-2-oxopyrrolidin-3-yl)propan-2-yl)carbamoyl)-2-azaspiro[4.4]nonane-2-carboxylate] | 88 nM | – | – | 22 nM | 16 mL/min/kg | 1.82 h | < 100 nM | 95000 nM | – |
| O=C[C@H](C[C@@H]1CCNC1=O)NC(=O)C1CC2(CCCCC2)CN1C(=O)OCc1ccccc1 (stereo partly drawn) [MPI61, Benzyl 3-(((S)-1-Oxo-3-((S)-2-oxopyrrolidin-3-yl)propan-2-yl)carbamoyl)-2-azaspiro[4.5]decane-2-carboxylate] | 85 nM | – | – | 49 nM | 45 mL/min/kg | 0.633 h | < 100 nM | 230000 nM | – |
| CC1(C)[C@@H]2[C@@H](C(=O)N[C@H](C=O)C[C@@H]3CCNC3=O)N(C(=O)CCC3CCCCC3)C[C@@H]21 [MPI65, (1R,2S,5S)-3-(3-Cyclohexylpropanoyl)-6,6-dimethyl-N-((S)-1-oxo-3-((S)-2-oxopyrrolidin-3-yl)propan-2-yl)-3-azabicyclo[3.1.0]hexane-2-carboxamide] | 560 nM | 960 nM | < 1000 nM | 41 nM | – | – | – | – | – |
| CC(C)C(=O)OC[C@H]1O[C@@H](n2ccc(NO)nc2=O)[C@H](O)[C@@H]1O [molnupiravir] | – | – | – | – | – | – | – | – | 50% |
